Measured values as given in US10851064B2, “ACSS2 inhibitors and methods of use thereof” (METABOMED LTD., priority 2017, dated 2020).

Target: ACSS2 (Homo sapiens, UniProt Q9NR19)
Experiment: biochemical
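Further: Cell-free human ACSS2 enzyme reaction with acetate, CoA and ATP, 90 min at 37 C, coupled to pyrophosphatase, phosphate release detected by Biomol Green absorbance at 620 nm.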

ACSS2, sequence (Q9NR19 whole entry): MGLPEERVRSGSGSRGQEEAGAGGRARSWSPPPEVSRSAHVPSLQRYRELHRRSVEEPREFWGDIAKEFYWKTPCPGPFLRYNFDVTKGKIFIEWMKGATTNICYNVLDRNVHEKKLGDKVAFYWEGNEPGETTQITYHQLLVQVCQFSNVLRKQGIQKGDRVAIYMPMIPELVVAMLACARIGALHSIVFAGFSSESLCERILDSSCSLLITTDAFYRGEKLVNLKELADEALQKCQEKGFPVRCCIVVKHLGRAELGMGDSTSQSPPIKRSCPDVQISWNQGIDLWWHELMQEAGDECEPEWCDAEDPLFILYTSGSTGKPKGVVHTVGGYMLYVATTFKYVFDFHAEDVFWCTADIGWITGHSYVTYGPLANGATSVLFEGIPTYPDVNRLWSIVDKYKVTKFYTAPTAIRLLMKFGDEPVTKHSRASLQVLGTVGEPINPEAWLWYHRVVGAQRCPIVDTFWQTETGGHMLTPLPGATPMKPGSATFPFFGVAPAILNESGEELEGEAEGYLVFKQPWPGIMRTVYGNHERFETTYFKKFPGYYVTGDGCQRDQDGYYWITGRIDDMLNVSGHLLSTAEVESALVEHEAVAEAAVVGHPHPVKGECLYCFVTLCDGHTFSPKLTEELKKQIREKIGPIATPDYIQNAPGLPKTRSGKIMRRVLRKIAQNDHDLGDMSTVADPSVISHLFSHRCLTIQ
Method: ACSS2 Cell-Free Activity Assay (Cell-Free IC50)
The assay is based on a coupling reaction with Pyrophosphatase: ACSS2 is converting ATP+CoA+Acetate=>AMP+pyrophosphate+Acetyl-CoA (Ac-CoA). Pyrophosphatase converts pyrophosphate, a product of the ACSS2 reaction, to phosphate which can be detected by measuring the absorbance at 620 nm after incubation with the Biomol green reagent (Enzo life Science, BML-AK111).
Cell-free IC50 Determination:
At the end of the reaction, Biomol Green was added for 30 minutes at RT and the activity was measured by reading the absorbance at 620 nm.

Compound | IC50 [nM]
CC1=NN(c2ccccc2)C(=O)C1C(=O)Nc1cccc(-c2cccs2)c1 (centres unmarked) [compound 101, 3-methyl-5-oxo-1-phenyl-N-(3-(thiophen-2-yl)phenyl)-4,5-dihydro-1H-pyrazole-4-carboxamide] | 6 to 100
CC1=NN(c2ccc(OC(F)F)cc2)C(=O)C1C(=O)Nc1cc(C(C)(F)F)cc2ccoc12 (centres unmarked) [compound 403] | 6 to 100
CCC(F)(F)c1cccc(NC(=O)C2C(=O)N(c3ccc(OC(F)F)c(-c4nnc(C)[nH]4)c3)N=C2C)c1 (centres unmarked) [compound 370] | 0.01 to 6
CC1=NN(c2ccccc2)C(=O)C1C(=O)N[C@@H](C)C(=O)O (stereo partly drawn) [compound 218, (2S)-2-(3-methyl-5-oxo-1-phenyl-4,5-dihydro-1H-pyrazole-4-carboxamido)propanoic acid] | 1000 to 100000
CC(=O)c1cccc(NC(=O)C2C(=O)N(c3cccc(C(=O)O)c3)N=C2C)c1 (centres unmarked) [compound 123, 3-(4-((3-acetylphenyl)carbamoyl)-3-methyl-5-oxo-4,5-dihydro-1H-pyrazol-1-yl)benzoic acid] | 100 to 1000
CC1=NN(c2ccccc2)C(=O)C1C(=O)Nc1ccc(F)cc1 (centres unmarked) [compound 189, N-(4-fluorophenyl)-3-methyl-5-oxo-1-phenyl-4,5-dihydro-1H-pyrazole-4-carboxamide] | 1000 to 100000
CC1=NN(c2ccc(S(=O)(=O)N(C)C)cc2)C(=O)C1C(=O)Nc1cccc(-c2ccco2)c1 (centres unmarked) [compound 160, 1-(4-(N,N-dimethylsulfamoyl)phenyl)-N-(3-(furan-2-yl)phenyl)-3-methyl-5-oxo-4,5-dihydro-1H-pyrazole-4-carboxamide] | 6 to 100
CC1=NN(c2cccc(C#CCN)c2)C(=O)C1C(=O)Nc1cccc(C(C)(F)F)c1 (centres unmarked) [compound 356] | 6 to 100
COc1ccc(N2N=C(C)C(C(=O)Nc3ccccc3)C2=O)cc1 (centres unmarked) [compound 197, 1-(4-methoxyphenyl)-3-methyl-5-oxo-N-phenyl-4,5-dihydro-1H-pyrazole-4-carboxamide] | 1000 to 100000
CNC(=O)C1C(=O)N(c2ccccc2)N=C1C (centres unmarked) [compound 199, N,3-dimethyl-5-oxo-1-phenyl-4,5-dihydro-1H-pyrazole-4-carboxamide] | > 100000
CC1=NN(c2ccccc2)C(=O)C1C(=O)Nc1cccc(-c2ccccc2)c1 (centres unmarked) [compound 102, N-([1,1′-biphenyl]-3-yl)-3-methyl-5-oxo-1-phenyl-4,5-dihydro-1H-pyrazole-4-carboxamide] | 100 to 1000
CC1=NN(c2ccccc2)C(=O)C1C(=O)Nc1cccc(O)c1 (centres unmarked) [compound 222, N-(3-hydroxyphenyl)-3-methyl-5-oxo-1-phenyl-4,5-dihydro-1H-pyrazole-4-carboxamide] | 1000 to 100000
CCc1cccc(NC(=O)c2c(C)nn(-c3ccc(NC)cc3)c2OC(=O)N(C)C)c1 [compound 224, 4-((3-ethylphenyl)carbamoyl)-3-methyl-1-(4-(methylamino)phenyl)-1H-pyrazol-5-yl dimethylcarbamate] | 1000 to 100000
CC1=NN(c2ccccc2)C(=O)C1C(=O)Nc1cccc(Cl)c1 (centres unmarked) [compound 210, N-(3-chlorophenyl)-3-methyl-5-oxo-1-phenyl-4,5-dihydro-1H-pyrazole-4-carboxamide] | 6 to 100
CC1=NN(c2ccc3[nH]ccc3c2)C(=O)C1C(=O)Nc1cccc(C(C)(F)F)c1 (centres unmarked) [compound 419] | 0.01 to 6
CC1=NN(c2ccccc2)C(=O)C1C(=O)Nc1cccc(CC(F)(F)F)c1 (centres unmarked) [compound 161, 3-methyl-5-oxo-1-phenyl-N-(3-(2,2,2-trifluoroethyl)phenyl)-4,5-dihydro-1H-pyrazole-4-carboxamide] | 6 to 100
CC1=NN(c2cc(Br)cc(Cc3ccc(Cl)cc3)c2)C(=O)C1C(=O)Nc1cccc(C(C)(F)F)c1 (centres unmarked) [compound 388] | 0.01 to 6
CC1=NN(c2ccccc2)C(=O)C1C(=O)Nc1ccc2c(c1)CCC2 (centres unmarked) [compound 209, N-(2,3-dihydro-1H-inden-5-yl)-3-methyl-5-oxo-1-phenyl-4,5-dihydro-1H-pyrazole-4-carboxamide] | 100 to 1000
CCc1csc(NC(=O)C2C(=O)N(c3ccccc3)N=C2C)c1 (centres unmarked) [compound 285] | 100 to 1000
CC1=NN(c2ccncc2)C(=O)C1C(=O)Nc1ccccc1 (centres unmarked) [compound 193, 3-methyl-5-oxo-N-phenyl-1-(pyridin-4-yl)-4,5-dihydro-1H-pyrazole-4-carboxamide] | > 100000
CC1=NN(c2cc(Cc3ccc(Cl)cc3)cc(-c3ccccc3)c2)C(=O)C1C(=O)Nc1cccc(C(C)(F)F)c1 (centres unmarked) [compound 376] | 6 to 100
CC1=NN(c2ccccn2)C(=O)C1C(=O)Nc1ccccc1 (centres unmarked) [compound 192, 5-hydroxy-3-methyl-N-phenyl-1-(pyridin-2-yl)-1H-pyrazole-4-carboxamide] | > 100000
COc1ccc(N2N=C(C)C(C(=O)Nc3cccc(C4COC4)c3)C2=O)cc1 (centres unmarked) [compound 354] | 6 to 100
CC1=NN(c2ccncc2)C(=O)C1C(=O)Nc1cccc(-c2cnccn2)c1 (centres unmarked) [compound 232] | 6 to 100
CC1=NN(c2ccccc2)C(=O)C1C(=O)Nc1ccncc1 (centres unmarked) [compound 216, 3-methyl-5-oxo-1-phenyl-N-(pyridin-4-yl)-4,5-dihydro-1H-pyrazole-4-carboxamide] | 1000 to 100000
CC(=O)NS(=O)(=O)c1cc(N2N=C(C)C(C(=O)Nc3cccc(-c4ccco4)c3)C2=O)ccc1OC(F)(F)F (centres unmarked) [compound 299] | 6 to 100
CC1=NN(c2cc(Cc3ccccc3Cl)cc(-c3ccccc3)c2)C(=O)C1C(=O)Nc1cccc(C(C)(F)F)c1 (centres unmarked) [compound 333] | 6 to 100

Compound | IC50 [nM]
CC1=NN(c2ccc(OC(F)F)cc2)C(=O)C1C(=O)Nc1cccc2cc[nH]c12 (centres unmarked) [compound 346] | 100 to 1000
CC1=NN(c2ccc(OC(F)F)cc2)C(=O)C1C(=O)Nc1ccc2cc[nH]c2c1 (centres unmarked) [compound 349] | 100 to 1000
CCCn1ccc2ccc(N3N=C(C)C(C(=O)Nc4cccc(C(C)(F)F)c4)C3=O)cc21 (centres unmarked) [compound 363] | 0.01 to 6
CC1=NN(c2ccc(C(F)(F)F)cc2)C(=O)C1C(=O)Nc1cccc(-c2cnccn2)c1 (centres unmarked) [compound 150, 3-methyl-5-oxo-N-(3-(pyrazin-2-yl)phenyl)-1-(4-(trifuoromethyl)phenyl)-4,5-dihydro-1H-pyrazole-4-carboxamide] | 6 to 100
CC1=NN(c2ccccc2)C(=O)C1C(=O)Nc1cccc(C(=O)O)c1 (centres unmarked) [compound 116, 3-(3-methyl-5-oxo-1-phenyl-4,5-dihydro-1H-pyrazole-4-carboxamido)benzoic acid] | 1000 to 100000
COc1ccc(N2N=C(C)C(C(=O)Nc3cccc(C(C)(F)F)c3)C2=O)cc1-c1cncnc1 (centres unmarked) [compound 442] | 0.01 to 6
CCNC(c1cccc(NC(=O)C2C(=O)N(c3ccccc3)N=C2C)c1)C(F)(F)F (centres unmarked) [compound 176] | 1000 to 100000
COc1ccc(N2N=C(C)C(C(=O)Nc3cccc(C(C)(F)F)c3)C2=O)cc1-c1cnccn1 (centres unmarked) [compound 433] | 0.01 to 6
CC1=NN(c2ccccc2)C(=O)C1C(=O)Nc1cccc(-c2ccncc2)c1 (centres unmarked) [compound 104, 3-methyl-5-oxo-1-phenyl-N-(3-(pyridin-4-yl)phenyl)-4,5-dihydro-1H-pyrazole-4-carboxamide] | 1000 to 100000
CCc1cccc(NC(=O)C2C(=O)N(c3ccccc3)N=C2C(F)(F)F)c1 (centres unmarked) [compound 130, N-(3-ethylphenyl)-5-oxo-1-phenyl-3-(trifluoromethyl)-4,5-dihydro-1H-pyrazole-4-carboxamide] | 1000 to 100000
CC1=NN(c2cc(-c3ccccc3)cc(-c3cccnc3)c2)C(=O)C1C(=O)Nc1cccc(C(C)(F)F)c1 (centres unmarked) [compound 390] | 0.01 to 6
CC1=NN(c2ccc(OC(F)F)cc2)C(=O)C1NC(=O)c1cccc(C(C)(F)F)c1 (centres unmarked) [compound 341] | 100 to 1000
CC1=NN(c2ccc(OC(F)F)cc2)C(=O)C1C(=O)Nc1cccc(C(C)(F)F)c1 (centres unmarked) [compound 418] | 100 to 1000
CC1=NN(c2ccc(S(=O)(=O)N(C)C)cc2)C(=O)C1C(=O)Nc1cccc(-c2ncc[nH]2)c1 (centres unmarked) [compound 173, N-(3-(1H-imidazol-2-yl)phenyl)-1-(4-(N,N-dimethylsulfamoyl)phenyl)-3-methyl-5-oxo-4,5-dihydro-1H-pyrazole-4-carboxamide] | 100 to 1000
CCC(F)(F)c1cccc(NC(=O)C2C(=O)N(c3ccc(OC)cc3)N=C2C)c1 (centres unmarked) [compound 435] | 0.01 to 6
COc1cc(N2N=C(C)C(C(=O)Nc3cccc(C(C)(F)F)c3)C2=O)ccc1OC(F)F (centres unmarked) [compound 454] | 0.01 to 6
CC1=NN(c2cccc(C#CCNC(=O)CCCC(=O)Nc3ccc4c(c3)C(=O)N(C3CCC(=O)NC3=O)C4=O)c2)C(=O)C1C(=O)Nc1cccc(C(C)(F)F)c1 (centres unmarked) [compound 382] | 0.01 to 6
CC1=NN(c2ccccc2)C(=O)C1C(=O)N(C)c1ccccc1 (centres unmarked) [compound 204, N,3-dimethyl-5-oxo-N,1-diphenyl-4,5-dihydro-1H-pyrazole-4-carboxamide] | > 100000
CCOC(=O)c1cc(NC(=O)C2C(=O)N(c3ccccc3)N=C2C)ccn1 (centres unmarked) [compound 135, ethyl 4-(3-methyl-5-oxo-1-phenyl-4,5-dihydro-1H-pyrazole-4-carboxamido)picolinate] | 100 to 1000
CC1=NN(c2ccc(S(=O)(=O)N(C)C)cc2)C(=O)C1C(=O)Nc1cccc(-c2ncco2)c1 (centres unmarked) [compound 254] | 100 to 1000
CC(O)(c1ccccc1)c1cccc(NC(=O)C2C=NN(c3ccc(OC(F)F)cc3)C2=O)c1 (centres unmarked) [compound 416] | 6 to 100
CC1=NN(C2CCN(C)CC2)C(=O)C1C(=O)Nc1ccccc1 (centres unmarked) [compound 221, 3-methyl-1-(1-methylpiperidin-4-yl)-5-oxo-N-phenyl-4,5-dihydro-1H-pyrazole-4-carboxamide] | > 100000
CC1=NN(c2ccc3ccn(-c4ccccc4)c3c2)C(=O)C1C(=O)Nc1cccc(C(C)(F)F)c1 (centres unmarked) [compound 361] | 0.01 to 6
CC1=NN(c2ccccc2)C(=O)C1C(=O)Nc1cccnc1 (centres unmarked) [compound 191, 3-methyl-5-oxo-1-phenyl-N-(pyridin-3-yl)-4,5-dihydro-1H-pyrazole-4-carboxamide] | 1000 to 100000
CC1=NN(c2ccccc2)C(=O)C1C(=O)Nc1ccc(S(=O)(=O)N(C)C)cc1 (centres unmarked) [compound 105, N-(4-(N,N-dimethylsulfamoyl)phenyl)-3-methyl-5-oxo-1-phenyl-4,5-dihydro-1H-pyrazole-4-carboxamide] | 1000 to 100000
CC1=NN(c2ccc(OC(F)F)c(-c3ccncc3)c2)C(=O)C1C(=O)Nc1cccc(C(C)(F)F)c1 (centres unmarked) [compound 450] | 0.01 to 6
